Measured values from publication PMC4824433, “A Carbapenem-Resistant Pseudomonas aeruginosa Isolate Harboring Two Copies of blaIMP-34 Encoding a Metallo-β-Lactamase” (PLoS ONE, 2016).
In brackets after ≈: the same amount, converted by molar mass.

Assays:
[1] = system: T1, P. aeruginosa NCGM1984; test: microbe, parasite or virus in culture; design: CLSI microdilution susceptibility test, minimum inhibitory concentration of bacterial growth; conditions: clinical isolate carrying two copies of blaIMP-34; for MIC: Pseudomonas aeruginosa, NCGM1984, read-out: MIC (μg/ml) / P. aeruginosa NCGM1984
T1 construct: NCGM1984 (clinical isolate, ST235, two chromosomal copies of blaIMP-34)

[2] = system: T2, E. coli DH5α (pHSG398); test: microbe, parasite or virus in culture; design: CLSI microdilution susceptibility test, minimum inhibitory concentration of bacterial growth; conditions: Escherichia coli; empty vector control; read-out: MIC (μg/ml) / E. coli DH5α (pHSG398)
T2 construct: DH5α (pHSG398) empty vector control
Experimental: (§1) The ORFs of blaIMP-1 and blaIMP-34 were amplified by PCR using the primers EcoRI-IMP-1/34-F(5′-gggGAATTCatgagcaagttatctgtattc-3′; uppercase letters indicate an EcoRI digestion site) and PstI-IMP-1/34-R (5′-aaaCTGCAGttagttgcttggttttgatgg-3′; uppercase letters indicate a PstI digestion site). […] The plasmids were used to transform DH5α, and transformants were selected on LB agar containing 30 μg/mL of chloramphenicol, and their susceptibilities to various β-lactams were assayed. P. aeruginosa NCGM2.S1 harboring blaIMP-1 was used as a reference strain [12].

[3] = system: T3, E. coli DH5α (pHSG398/IMP-1); test: microbe, parasite or virus in culture; design: CLSI microdilution susceptibility test, minimum inhibitory concentration of bacterial growth; conditions: Escherichia coli, read-out: MIC (μg/ml) / E. coli DH5α (pHSG398/IMP-1)
T3 construct: DH5α (pHSG398/IMP-1) transformant expressing blaIMP-1 from pHSG398
Experimental: as §1

[4] = system: CC(C)(O/N=C(\C(=O)N[C@@H]1C(=O)N2C(C(=O)[O-])=C(C[n+]3ccccc3)CS[C@H]12)c1csc(N)n1)C(=O)O; test: purified protein; conditions: 50 mM Tris-HCl pH 7.4, 5 μM Zn(NH3)2, 37°C
Description: (§2) UV-visible spectrophotometry, initial rates, Lineweaver-Burk plots on IMP-1

[5] = system: CC1(C)S[C@@H]2[C@H](NC(=O)Cc3ccccc3)C(=O)N2[C@H]1C(=O)O; test: purified protein; conditions: 50 mM Tris-HCl pH 7.4, 5 μM Zn(NH3)2, 37°C
Description: as §2

[6] = system: CC1(C)S[C@@H]2[C@H](NC(=O)[C@H](N)c3ccccc3)C(=O)N2[C@H]1C(=O)O; test: purified protein; conditions: 50 mM Tris-HCl pH 7.4, 5 μM Zn(NH3)2, 37°C
Description: as §2

[7] = system: CC1=C(C(=O)O)N2C(=O)[C@@H](NC(=O)[C@H](N)C3=CCC=CC3)[C@H]2SC1; test: purified protein; conditions: 50 mM Tris-HCl pH 7.4, 5 μM Zn(NH3)2, 37°C
Description: as §2

[8] = system: CO/N=C(\C(=O)N[C@@H]1C(=O)N2C(C(=O)O)=C(COC(C)=O)CS[C@H]12)c1csc(N)n1; test: purified protein; conditions: 50 mM Tris-HCl pH 7.4, 5 μM Zn(NH3)2, 37°C
Description: as §2

[9] = system: CO/N=C(\C(=O)N[C@@H]1C(=O)N2C(C(=O)[O-])=C(C[N+]3(C)CCCC3)CS[C@H]12)c1csc(N)n1; test: purified protein; conditions: 50 mM Tris-HCl pH 7.4, 5 μM Zn(NH3)2, 37°C
Description: as §2

[10] = system: CO[C@@]1(NC(=O)Cc2cccs2)C(=O)N2C(C(=O)O)=C(COC(N)=O)CS[C@@H]21; test: purified protein; conditions: 50 mM Tris-HCl pH 7.4, 5 μM Zn(NH3)2, 37°C
Description: as §2

[11] = system: C[C@@H](O)[C@H]1C(=O)N2C(C(=O)O)=C(SCCN=CN)C[C@H]12; test: purified protein; conditions: 50 mM Tris-HCl pH 7.4, 5 μM Zn(NH3)2, 37°C
Description: as §2

[12] = system: C[C@@H](O)[C@H]1C(=O)N2C(C(=O)O)=C(S[C@@H]3CN[C@H](C(=O)N(C)C)C3)[C@H](C)[C@H]12; test: purified protein; conditions: 50 mM Tris-HCl pH 7.4, 5 μM Zn(NH3)2, 37°C
Description: as §2

[13] = system: C[C@@H](O)[C@H]1C(=O)N2C(C(=O)O)=C(S[C@@H]3CN[C@H](CNS(N)(=O)=O)C3)[C@H](C)[C@H]12; test: purified protein; conditions: 50 mM Tris-HCl pH 7.4, 5 μM Zn(NH3)2, 37°C
Description: as §2

CC1(C)S[C@@H]2[C@H](NC(=O)[C@H](N)c3ccccc3)C(=O)N2[C@H]1C(=O)O [Ampicillin]
MIC [1]: > 1020 µg/mL | MIC [2]: 2 µg/mL (≈ 5.72 µM) | MIC [3]: 32 µg/mL (≈ 91.6 µM)

C[C@H]1[C@H](NC(=O)/C(=N\OC(C)(C)C(=O)O)c2csc(N)n2)C(=O)N1S(=O)(=O)O [Aztreonam]
MIC [1]: 64 µg/mL (≈ 147 µM) | MIC [2]: ≤ 0.25 µg/mL | MIC [3]: ≤ 0.25 µg/mL

CO/N=C(\C(=O)N[C@@H]1C(=O)N2C(C(=O)[O-])=C(C[N+]3(C)CCCC3)CS[C@H]12)c1csc(N)n1 [Cefepime]
MIC [1]: > 1020 µg/mL

CO/N=C(\C(=O)N[C@@H]1C(=O)N2C(C(=O)O)=C(COC(C)=O)CS[C@H]12)c1csc(N)n1 [Cefotaxime]
MIC [1]: > 1020 µg/mL | MIC [2]: ≤ 0.25 µg/mL | MIC [3]: 16 µg/mL (≈ 35.1 µM)

CO[C@@]1(NC(=O)Cc2cccs2)C(=O)N2C(C(=O)O)=C(COC(N)=O)CS[C@@H]21 [Cefoxitin]
MIC [1]: > 1020 µg/mL | MIC [2]: 2 µg/mL (≈ 4.68 µM) | MIC [3]: 512 µg/mL (≈ 1200 µM)

CO/N=C(\C(=O)N[C@@H]1C(=O)N2C(C(=O)[O-])=C(C[n+]3ccn4ncccc43)CS[C@H]12)c1nsc(N)n1 [Cefozopran]
MIC [1]: > 1020 µg/mL | MIC [2]: ≤ 0.25 µg/mL | MIC [3]: 4 µg/mL (≈ 7.76 µM)

CO/N=C(\C(=O)N[C@@H]1C(=O)N2C(C(=O)[O-])=C(C[n+]3cccc4c3CCC4)CS[C@H]12)c1csc(N)n1 [Cefpirome]
MIC [1]: 512 µg/mL (≈ 995 µM) | MIC [2]: ≤ 0.25 µg/mL | MIC [3]: 0.25 µg/mL (≈ 0.486 µM)

CC(C)(O/N=C(\C(=O)N[C@@H]1C(=O)N2C(C(=O)[O-])=C(C[n+]3ccccc3)CS[C@H]12)c1csc(N)n1)C(=O)O [Ceftazidime]
MIC (μg/ml) / P. aeruginosa NCGM1984 [1]: > 1,024 ug/mL | MIC [2]: ≤ 0.25 µg/mL | MIC [3]: 512 µg/mL (≈ 937 µM)

CO/N=C(\C(=O)N[C@@H]1C(=O)N2C(C(=O)O)=C(CSc3nc(=O)c(O)nn3C)CS[C@H]12)c1csc(N)n1 [Ceftriaxone]
MIC [1]: > 1020 µg/mL | MIC [2]: ≤ 0.25 µg/mL | MIC [3]: 64 µg/mL (≈ 115 µM)

CO/N=C(\C(=O)N[C@@H]1C(=O)N2C(C(=O)O)=C(COC(N)=O)CS[C@H]12)c1ccco1 [Cefuroxime]
MIC [1]: > 1020 µg/mL | MIC [2]: 4 µg/mL (≈ 9.43 µM) | MIC [3]: 256 µg/mL (≈ 603 µM)

CC1=C(C(=O)O)N2C(=O)[C@@H](NC(=O)[C@H](N)C3=CCC=CC3)[C@H]2SC1 [Cephradine]
MIC [1]: > 1020 µg/mL | MIC [2]: 16 µg/mL (≈ 45.8 µM) | MIC [3]: 256 µg/mL (≈ 733 µM)

C[C@@H](O)[C@H]1C(=O)N2C(C(=O)O)=C(S[C@@H]3CN[C@H](CNS(N)(=O)=O)C3)[C@H](C)[C@H]12 [Doripenem]
MIC [1]: > 1020 µg/mL | MIC [2]: ≤ 0.25 µg/mL | MIC [3]: 0.25 µg/mL (≈ 0.595 µM)

C[C@@H](O)[C@H]1C(=O)N2C(C(=O)O)=C(SCCN=CN)C[C@H]12 [Imipenem]
MIC [1]: 512 µg/mL (≈ 1710 µM) | MIC [2]: ≤ 0.25 µg/mL | MIC [3]: 0.5 µg/mL (≈ 1.67 µM)

C[C@@H](O)[C@H]1C(=O)N2C(C(=O)O)=C(S[C@@H]3CN[C@H](C(=O)N(C)C)C3)[C@H](C)[C@H]12 [Meropenem]
MIC [1]: > 1020 µg/mL | MIC [2]: ≤ 0.25 µg/mL | MIC [3]: 0.5 µg/mL (≈ 1.3 µM)

CO[C@@]1(NC(=O)C(C(=O)O)c2ccc(O)cc2)C(=O)N2C(C(=O)O)=C(CSc3nnnn3C)CO[C@@H]21 (stereo partly shown) [Moxalactam]
MIC [1]: > 1020 µg/mL | MIC [2]: ≤ 0.25 µg/mL | MIC [3]: 64 µg/mL (≈ 123 µM)

CC1(C)S[C@@H]2[C@H](NC(=O)Cc3ccccc3)C(=O)N2[C@H]1C(=O)O [Penicillin G]
MIC [1]: > 1020 µg/mL | MIC [2]: 32 µg/mL (≈ 95.7 µM) | MIC [3]: 128 µg/mL (≈ 383 µM)

IMP-1 (Serratia marcescens)
Km [4]: 26 ± 1 µM | kcat [4]: 0.68 ± 0.01 s⁻¹ | kcat/Km [4]: 26000 M⁻¹ s⁻¹ | Km [5]: 685 ± 99 µM | kcat [5]: 94 ± 12 s⁻¹ | kcat/Km [5]: 140000 M⁻¹ s⁻¹ | Km [6]: 341 ± 17 µM | kcat [6]: 16 ± 1 s⁻¹ | kcat/Km [6]: 48000 M⁻¹ s⁻¹ | Km [7]: 73 ± 2 µM | kcat [7]: 21 ± 1 s⁻¹ | kcat/Km [7]: 290000 M⁻¹ s⁻¹ | Km [8]: 13 ± 2 µM | kcat [8]: 2.8 ± 0.1 s⁻¹ | kcat/Km [8]: 220000 M⁻¹ s⁻¹ | Km [9]: 22 ± 8 µM | kcat [9]: 1.4 ± 0.2 s⁻¹ | kcat/Km [9]: 68000 M⁻¹ s⁻¹ | Km [10]: 34 ± 5 µM | kcat [10]: 2.7 ± 0.1 s⁻¹ | kcat/Km [10]: 80000 M⁻¹ s⁻¹ | Km [11]: 58 ± 14 µM | kcat [11]: 6.9 ± 0.5 s⁻¹ | kcat/Km [11]: 120000 M⁻¹ s⁻¹ | Km [12]: 37 ± 12 µM | kcat [12]: 2.3 ± 0.2 s⁻¹ | kcat/Km [12]: 66000 M⁻¹ s⁻¹ | Km [13]: 39 ± 8 µM | kcat [13]: 4.8 ± 0.1 s⁻¹ | kcat/Km [13]: 130000 M⁻¹ s⁻¹
